The text below walks through data of patent US9726659B2, “CMPF as a biomarker for diabetes and associated methods” (The Governing Council of the University of Toronto, priority 2012, dated 2017).

One series has as its system MIN6. Description: Total insulin content in MIN6 cells. The series is classed as cell-based, murine. The conditions noted are these: 200 uM, 4 hrs, vs vehicle. Here is the method: (§1) In the absence of apoptosis and necrosis, CMPF must be impairing GSIS by causing beta cell dysfunction. First, the effect of CMPF treatment on insulin biosynthesis was investigated to determine if insulin is available to be released upon stimulation. MIN6, murine and human islets were treated with vehicle control, 20 uM and 200 uM CMPF for 4 hrs (MIN6) or 24 hrs (islets), and total insulin content measured. […] Lower total insulin content may be due to either defective insulin processing from proinsulin to mature insulin, or insufficient insulin transcription. To determine the mechanism through which CMPF is reducing total insulin content, quantitative PCR (qPCR) was performed on RNA that was isolated from murine islets treated with either vehicle control or 200 uM CMPF for 24 hrs.

In series [1] the test system is mouse islets. Description: Western blotting of treated mouse islets. The series is classed as cell-based. Here is the method:
CMPF-treated and control mouse islets were lysed in RIPA buffer (Cell Signaling, Danvers, Mass., USA) containing protease inhibitor cocktail (Roche, Mississauga, ON, Canada). Lysates were spun at 12,000 rpm and supernatant was loaded onto a 4-15% SDS-PAGE gradient gel (BioRad, Mississauga, ON, Canada) and transferred onto PVDF membrane using a Turbo Blotter (BioRad). The membrane was probed with the corresponding antibodies, and imaged using Kodak Imager 4000pro (Carestream, Rochester, N.Y., USA).
To determine the mechanism through which CMPF decreases insulin biosynthesis we examined its effect on these key regulators. Under normal conditions, AKT and GSK3β have reciprocal activities. Active pAKT phosphorylates and inactivates GSK3β, preventing phosphorylation of downstream targets (Humphrey et al., 2010). […] FOXO1 is normally sequestered in the cytosol due to phosphorylation by AKT (Kitamura et al., 2005). […] Altered activity of these transcription factors is further confirmed by decreased mRNA levels of key target genes including Inst, transcription factors Pdx1 and Mafa, proinsulin processing enzymes CpE, Pc1 and Pc2, and the glucose transporter Glut2 (Boucher et al., 2006; Kaneto et al. 2008) (FIG. 18a).

Series [2] has as its system murine islets. Nature of the series: qPCR mRNA expression in treated murine islets. The series is classed as cell-based. Conditions: 24 hrs. Here is the method:
First, the effect of CMPF treatment on insulin biosynthesis was investigated to determine if insulin is available to be released upon stimulation. MIN6, murine and human islets were treated with vehicle control, 20 uM and 200 uM CMPF for 4 hrs (MIN6) or 24 hrs (islets), and total insulin content measured. […] To determine the mechanism through which CMPF is reducing total insulin content, quantitative PCR (qPCR) was performed on RNA that was isolated from murine islets treated with either vehicle control or 200 uM CMPF for 24 hrs. […] Total RNA was extracted from 24 hour vehicle or CMPF-treated islets using the Qiagen RNeasy Plus mini kit (Hilden, Germany). Microarray analysis was performed as previously described (Basford et al. 2012) using the Affymetrix Mouse 430 2.0 Gene Chip at the University Health Network microarray center (Toronto, Canada). Significant changes were defined as P<0.05. Microarray data will be available on the NCBI GEO database at the time of publication. Human islet microarray data can be found at GE040709. Reverse transcription from total RNA and quantitative real time PCR (qPCR) analysis was performed as previously described (Basford et al. 2012). Primers were designed using Primer3 software (NCBI). Data were normalized to beta actin mRNA.

For series [3], the system named is murine islets. Description: Total insulin content in murine islets. The series is classed as cell-based. The conditions noted are these: 200 uM. Here is the method: Murine islets were treated for 24 hrs with vehicle control (0 CMPF), 20 uM (20 CMPF), or 200 uM (200 CMPF) CMPF, and assessed for total insulin content and mRNA expression. […] Decreased expression of insulin processing enzymes PCSK1, 2 and CpE (F), (G), (H) indicate that CMPF may also impair post-translational insulin processing. Finally, CMPF causes decreased expression of the beta cell glucose transporter GLUT2, and GCK, the rate-limiting enzyme critical for glucose metabolism (I) and (J), perhaps impairing glucose sensing and metabolism. In all cases n=4, *P<0.05.
as §1

Series [4] has as its system mouse islets. Description: Microarray analysis of 24 hr treated islets. Conditions: 24 hr treatment. It counts as cell-based. Here is the method: A) Expression of insulin, insulin processing enzymes, insulin transcription factors and glucose-sensing genes in 24-hour treated islets (N=5-6/group). B) MMP following 24-hour incubation with control or 200 μM CMPF, and change in fluorescence (N=4/group). […] Values are mean+/−SEM. Student's t-test (a,c), one-way ANOVA (b). *P<0.05, **P<0.01
Total RNA was extracted from 24 hour vehicle or CMPF-treated islets using the Qiagen RNeasy Plus mini kit (Hilden, Germany). Microarray analysis was performed as previously described (Basford et al. 2012) using the Affymetrix Mouse 430 2.0 Gene Chip at the University Health Network microarray center (Toronto, Canada). Significant changes were defined as P<0.05. Microarray data will be available on the NCBI GEO database at the time of publication. Human islet microarray data can be found at GE040709. Reverse transcription from total RNA and quantitative real time PCR (qPCR) analysis was performed as previously described (Basford et al. 2012). Primers were designed using Primer3 software (NCBI). Data were normalized to beta actin mRNA.
Given that CMPF causes hyperinsulinemia during the fed-state in vivo, and exaggerated secretion of insulin from islets under non-stimulatory conditions in vitro, we rationalized that there must be a defect in glucose-sensing and/or secretion of insulin that could not be solely explained by effects on insulin production. […] To confirm changes in mitochondrial function, 24 hr CMPF treated islets were analyzed by microarray. […] When organized based on biological process, the largest differentially expressed cluster encompassed genes involved in metabolism (38%) (FIG. 17c). […] Such a switch can decrease the beta-cell's ability to sense and metabolize glucose, limiting their capacity for GSIS thus may explain CMPF's effect on beta-cells (Hue et al., 2009).

Consider `CCCc1oc(CCC(=O)O)c(C(=O)O)c1C` [CMPF, 3-carboxy-4-methyl-5-propyl-2-furanpropanoic acid], for which the total insulin content entry in the series with MIN6 is listed as “significantly reduced”. In the series on mouse islets [1] (24 hr treatment), the “AKT (Ser473) phosphorylation” value is reported as “significantly impaired” and the “GSK3β (Ser9) phosphorylation” value was “significantly impaired”. In addition, the “absolute protein levels of PDX1 and FOXO1” value in the series with mouse islets [1] (CMPF-treated islets) is on record as “not significantly different”. Besides, in the series with murine islets [2] (200 uM), the “CpE mRNA” value is listed as “significantly lower levels”, the GCK expression entry is listed as “trend toward lower expression”, the GLUT2 expression result was “significantly reduced” and the “HNF4a mRNA” value is reported as “significant reduction”. In the series on murine islets [2] (200 uM), the “MAFA mRNA” value is given as “significant reduction”, the “PCSK1 mRNA” value is recorded as “trending lower levels”, the “PCSK2 mRNA” value was “trending lower levels” and the “PDX1 mRNA” value is “significant reduction”. Moreover, the “insulin mRNA” value with murine islets [2] (200 uM) was “significant reduction”. In the series with murine islets [2], the Ucp2 expression result is “Increased antioxidant gene expression” and the “catalase (Cat) expression” value was “Increased antioxidant gene expression”. The “total DNA” value with murine islets [3] was “absence of changes”. Also, the total insulin content result in the series with murine islets [3] (24 hrs, vs vehicle) is given as “significantly reduced”. In addition, in the series with mouse islets [4], the “genes related to fat oxidation” value is on record as “significant upregulation”, the “share of differentially expressed genes in the metabolism cluster” value was 38% and the “transcripts significantly differentially expressed” value worked out at 6.2%.
